≈ marks a conversion by molar mass, not a printed value. Like-named read-outs stand apart in the source and are kept apart here.
What was measured:
[1] = test system: Klebsiella pneumoniae X68; assay: Minimum inhibitory concentration, standard agar dilution method; format: cell-based
Source text: (§1) The method of this invention is useful in treating infections caused by a variety of microorganisms pathogenic to man and animals. […] The concentrations were obtained by the standard agar dilution method.

[2] = test system: Staphylococcus aureus X1.1; assay: as above; format: cell-based
Source text: as §1

[3] = test system: Streptococcus pneumoniae PARK I; assay: as above; format: cell-based
Source text: as §1

[4] = test system: Streptococcus pyogenes C203; assay: as above; format: cell-based
Source text: as §1

[5] = test system: Staphylococcus epidermidis 222; assay: as above; format: cell-based
Source text: as §1

[6] = test system: Staphylococcus aureus X400; assay: as above; format: cell-based
Source text: as §1

[7] = test system: Streptococcus sp. group D X66; assay: as above; format: cell-based; conditions: for MIC: read-out: Minimum Inhibitory Concentration
Source text: as §1

[8] = test system: Staphylococcus epidermidis Epil; assay: as above; format: cell-based
Source text: as §1

[9] = test system: Streptococcus sp. group D 2041; assay: as above; format: cell-based; conditions: for MIC: read-out: Minimum Inhibitory Concentration
Source text: as §1

[10] = test system: Staphylococcus aureus V41; assay: as above; format: cell-based
Source text: as §1

Escherichia coli N10 = assay: as above; format: cell-based
Source text: as §1

Escherichia coli TEM = assay: as above; format: cell-based
Source text: as §1

[11] = test system: Haemophilus influenzae 76; assay: as above; format: cell-based
Source text: as §1

[12] = test system: Klebsiella pneumoniae KAE; assay: as above; format: cell-based; conditions: for MIC: read-out: Minimum Inhibitory Concentration
Source text: as §1

[13] = test system: Klebsiella pneumoniae X26; assay: as above; format: cell-based
Source text: as §1

[14] = test system: Staphylococcus aureus S13E; assay: as above; format: cell-based; conditions: for MIC: Staphylococcus aureus, S13E, read-out: Minimum Inhibitory Concentration; for Minimum Inhibitory Concentration: Staphylococcus aureus S13E, agar dilution
Source text: as §1

[15] = test system: Haemophilus influenzae C.L.; assay: as above; format: cell-based
Source text: as §1

Escherichia coli EC14 = assay: as above; format: cell-based
Source text: as §1

[16] = Peroral bioavailability in mice (oral vs subcutaneous dosage); format: in vivo, mice (Cox Male Standard Mice, Lai:COX (Standard) BR); conditions: 20 mg/kg; for Oral Bioavailability % BA (AUC): area under plasma curves after oral vs subcutaneous dosage; for Oral Bioavailability % BA (URINE): urinary excretion after oral vs subcutaneous dosage
Source text: Cox Male Standard Mice, Lai:COX (Standard) BR were housed overnight in a wire-bottom cage with free access to water and liquid diet. The result was a gastro-intestinal tract free of solids, yet without the nutritional shock and coprophagy that often accompanies overnight starvation of rodents. After dosing, the mice were housed individually in ventilated wide-mouth jars containing a layer of buffer beneath an elevated wire screen floor. At intervals after dosing, mice were removed from the jars and heparinized blood, stomach, and small intestine were removed from the animals. The urinary bladder was removed and combined with the urine collected in the buffer in the bottom of the jars. Urine, washings from the stomach and small intestine, and plasma prepared from blood samples were assayed for antibiotic activity. The test procedure used is a modification of the test procedure described by W. E. Wright, et al., J. Antibiotics, 32:1155 (1979).
Dose solutions were prepared in saline at 2 mg/ml for subcutaneous or oral administration. In all cases the compounds were administered to the mice at 20 mg/kg on an equal weight basis.
The biological activity of the samples was determined by a conventional agar well procedure using Bacillus subtilis ATCC 6633 as the test organism.
Peroral bioavailability (BA) of the test compounds in mice can be determined either by comparison of the area under the plasma curves (AUC) after oral or subcutaneous dosage, or by comparison of the urinary excretion of the dose after oral and subcutaneous dosage. Calculations of BA by either method are made with the following formulae: [formula]

[17] = Oral bioavailability in dogs; format: in vivo; conditions: female mongrel dogs
[18] = Staphylococcus aureus X400, agar dilution
[19] = Streptococcus sp. group D X66, agar dilution
[20] = Streptococcus sp. group D 2041, agar dilution
[21] = Staphylococcus aureus V41, agar dilution
[22] = Klebsiella pneumoniae KAE, agar dilution
[23] = Staphylococcus aureus X400, agar dilution, read-out: Minimum Inhibitory Concentration
[24] = Staphylococcus aureus V41, agar dilution, read-out: Minimum Inhibitory Concentration

Cc1nc(CC(=O)N[C@@H]2C(=O)N3C(C(=O)O)=C(Cl)CS[C@H]23)cs1 [Compound 4, 7β-[2-(2-Methylthiazol-4-yl)acetamido]-3-chloro-3-cephem-4-carboxylic acid] gave an MIC [1] of 8 mg/L (≈ 21.4 µM), an MIC [2] of 1 mg/L (≈ 2.67 µM) and an MIC [3] of 1 mg/L (≈ 2.67 µM). It also gave an MIC [4] of 0.25 mg/L (≈ 0.669 µM), an MIC [5] of 2 mg/L (≈ 5.35 µM) and an MIC ([6]; Staphylococcus aureus, X400, read-out: Minimum Inhibitory Concentration) greater than 128 mg/L. The MIC ([7]; Streptococcus) was greater than 128 mg/L, the MIC [8] was 8 mg/L (≈ 21.4 µM) and the MIC ([9]; Streptococcus) was 128 mg/L (≈ 342 µM). It also gave an MIC ([10]; Staphylococcus aureus, V41, read-out: Minimum Inhibitory Concentration) of 128 mg/L (≈ 342 µM), an MIC (Escherichia coli N10) of 32 mg/L (≈ 85.6 µM) and an MIC (Escherichia coli TEM) of 16 mg/L (≈ 42.8 µM). For the same compound, the MIC [11] was 1 mg/L (≈ 2.67 µM), the MIC ([12]; Klebsiella pneumoniae) was greater than 128 mg/L and the MIC [13] was 2 mg/L (≈ 5.35 µM). The MIC [14] was 128 mg/L (≈ 342 µM), the MIC [15] was 2 mg/L (≈ 5.35 µM) and the MIC (Escherichia coli EC14) was 16 mg/L (≈ 42.8 µM). For the same compound, the “Oral Bioavailability % BA (AUC)” value [16] was 57% and the “Oral Bioavailability % BA (URINE)” value [16] was 66%.
For Nc1nc(CC(=O)N[C@@H]2C(=O)N3C(C(=O)O)=C(Cl)CS[C@H]23)ns1 [Compound 1], the “Minimum Inhibitory Concentration” value [1] was 8 µg/mL, the “Minimum Inhibitory Concentration” value [2] was 4 µg/mL and the “Minimum Inhibitory Concentration” value [3] was 2 µg/mL. For the same compound, the “Minimum Inhibitory Concentration” value [4] was 1 µg/mL, the “Minimum Inhibitory Concentration” value [5] was 4 µg/mL and the “Minimum Inhibitory Concentration” value [6, 18] was greater than 128 µg/mL. The “Minimum Inhibitory Concentration” value [7, 19] was greater than 128 µg/mL, the “Minimum Inhibitory Concentration” value [8] was 16 µg/mL and the “Minimum Inhibitory Concentration” value [9, 20] was 128 µg/mL. For the same compound, the “Minimum Inhibitory Concentration” value [10, 21] was 128 µg/mL, the “Minimum Inhibitory Concentration” value (Escherichia coli N10) was 32 µg/mL and the “Minimum Inhibitory Concentration” value (Escherichia coli TEM) was 16 µg/mL. The “Minimum Inhibitory Concentration” value [11] was 4 µg/mL, the “Minimum Inhibitory Concentration” value [12, 22] was greater than 128 µg/mL and the “Minimum Inhibitory Concentration” value [13] was 4 µg/mL. The “Minimum Inhibitory Concentration” value [14] was 64 µg/mL, the “Minimum Inhibitory Concentration” value [15] was 4 µg/mL and the “Minimum Inhibitory Concentration” value (Escherichia coli EC14) was 8 µg/mL.
With O=C(Cn1cnnn1)N[C@@H]1C(=O)N2C(C(=O)O)=C(Cl)CS[C@H]12 [Compound 6] the “Minimum Inhibitory Concentration” value [1] was 32 µg/mL, the “Minimum Inhibitory Concentration” value [2] was 2 µg/mL and the “Minimum Inhibitory Concentration” value [3] was 0.5 µg/mL. For the same compound, the “Minimum Inhibitory Concentration” value [4] was 0.5 µg/mL, the “Minimum Inhibitory Concentration” value [5] was 4 µg/mL and the “Minimum Inhibitory Concentration” value [6, 18] was greater than 128 µg/mL. For the same compound, the “Minimum Inhibitory Concentration” value [7, 19] was 64 µg/mL, the “Minimum Inhibitory Concentration” value [8] was 16 µg/mL and the “Minimum Inhibitory Concentration” value [9, 20] was 64 µg/mL. For the same compound, the “Minimum Inhibitory Concentration” value [10, 21] was 32 µg/mL, the “Minimum Inhibitory Concentration” value (Escherichia coli N10) was 32 µg/mL and the “Minimum Inhibitory Concentration” value (Escherichia coli TEM) was 32 µg/mL. The “Minimum Inhibitory Concentration” value [11] was 8 µg/mL, the “Minimum Inhibitory Concentration” value [12, 22] was greater than 128 µg/mL and the “Minimum Inhibitory Concentration” value [13] was 32 µg/mL. The “Minimum Inhibitory Concentration” value [14] was 32 µg/mL, the “Minimum Inhibitory Concentration” value [15] was 16 µg/mL and the “Minimum Inhibitory Concentration” value (Escherichia coli EC14) was 16 µg/mL.
In the case of CC1(C)S[C@@H]2[C@H](NC(=O)COc3ccccc3)C(=O)N2[C@H]1C(=O)O [Penicillin V], the bioavailability ([17]; dog, urine recovery with time following intravenous and oral administration, read-out: bioavailability (percent of dose recovered in the urine)) is reported as 21% and the “oral bioavailability (area under the curves)” value ([17]; serum antibacterial levels with time following intravenous and oral administration) is reported as 11%.
O=C(Cc1csc(Cl)n1)N[C@@H]1C(=O)N2C(C(=O)O)=C(Cl)CS[C@H]12 [Compound 3, 7β-[2-(2-Chlorothiazol-4-yl)acetamido]-3-chloro-3-cephem-4-carboxylic acid] gave an MIC [1] of 8 mg/L (≈ 20.3 µM), an MIC [2] of 1 mg/L (≈ 2.54 µM) and an MIC [3] of 0.5 mg/L (≈ 1.27 µM). The MIC [4] was 0.25 mg/L (≈ 0.634 µM), the MIC [5] was 2 mg/L (≈ 5.07 µM) and the MIC [6, 23] was greater than 128 mg/L. The MIC [7, 19] was 128 mg/L (≈ 325 µM), the MIC [8] was 8 mg/L (≈ 20.3 µM) and the MIC [9, 20] was 64 mg/L (≈ 162 µM). For the same compound, the MIC [10, 24] was 64 mg/L (≈ 162 µM), the MIC (Escherichia coli N10) was 32 mg/L (≈ 81.2 µM) and the MIC (Escherichia coli TEM) was 16 mg/L (≈ 40.6 µM). The MIC [11] was 2 mg/L (≈ 5.07 µM), the MIC [12, 22] was 128 mg/L (≈ 325 µM) and the MIC [13] was 4 mg/L (≈ 10.1 µM). It also gave an MIC [14] of 64 mg/L (≈ 162 µM), an MIC [15] of 2 mg/L (≈ 5.07 µM) and an MIC (Escherichia coli EC14) of 16 mg/L (≈ 40.6 µM). The “Oral Bioavailability % BA (AUC)” value [16] was 66% and the “Oral Bioavailability % BA (URINE)” value [16] was 56%.
For O=C(Cc1csc(-c2ccccc2)n1)N[C@@H]1C(=O)N2C(C(=O)O)=C(Cl)CS[C@H]12 [Compound 5, 7β-[2-(2-Phenylthiazol-4-yl)acetamido]-3-chloro-3-cephem-4-carboxylic acid], the MIC [1] was greater than 128 mg/L, the MIC [2] was 0.25 mg/L (≈ 0.574 µM) and the MIC [3] was 0.125 mg/L (≈ 0.287 µM). The MIC [4] was 0.06 mg/L (≈ 0.138 µM), the MIC [5] was 0.5 mg/L (≈ 1.15 µM) and the MIC [6, 23] was 64 mg/L (≈ 147 µM). For the same compound, the MIC [7, 19] was 64 mg/L (≈ 147 µM), the MIC [8] was 4 mg/L (≈ 9.18 µM) and the MIC [9, 20] was 16 mg/L (≈ 36.7 µM). It also gave an MIC [10, 24] of 32 mg/L (≈ 73.4 µM), an MIC (Escherichia coli N10) greater than 128 mg/L and an MIC (Escherichia coli TEM) greater than 128 mg/L. It also gave an MIC [11] of 0.5 mg/L (≈ 1.15 µM), an MIC [12, 22] greater than 128 mg/L and an MIC [13] of 8 mg/L (≈ 18.4 µM). It also gave an MIC [14] of 16 mg/L (≈ 36.7 µM), an MIC [15] of 4 mg/L (≈ 9.18 µM) and an MIC (Escherichia coli EC14) greater than 128 mg/L.
For N#Cc1ncn(CC(=O)N[C@@H]2C(=O)N3C(C(=O)O)=C(Cl)CS[C@H]23)n1 [Compound 7], the “Minimum Inhibitory Concentration” value [1] was 64 µg/mL, the “Minimum Inhibitory Concentration” value [2] was 2 µg/mL and the “Minimum Inhibitory Concentration” value [3] was 0.5 µg/mL. For the same compound, the “Minimum Inhibitory Concentration” value [4] was 0.25 µg/mL, the “Minimum Inhibitory Concentration” value [5] was 4 µg/mL and the “Minimum Inhibitory Concentration” value [6, 18] was greater than 128 µg/mL. For the same compound, the “Minimum Inhibitory Concentration” value [7, 19] was 128 µg/mL, the “Minimum Inhibitory Concentration” value [8] was 8 µg/mL and the “Minimum Inhibitory Concentration” value [9, 20] was 64 µg/mL. For the same compound, the “Minimum Inhibitory Concentration” value [10, 21] was 128 µg/mL, the “Minimum Inhibitory Concentration” value (Escherichia coli N10) was 64 µg/mL and the “Minimum Inhibitory Concentration” value (Escherichia coli TEM) was 64 µg/mL. The “Minimum Inhibitory Concentration” value [11] was 2 µg/mL, the “Minimum Inhibitory Concentration” value [12, 22] was greater than 128 µg/mL and the “Minimum Inhibitory Concentration” value [13] was 32 µg/mL. The “Minimum Inhibitory Concentration” value [14] was 128 µg/mL, the “Minimum Inhibitory Concentration” value [15] was 2 µg/mL and the “Minimum Inhibitory Concentration” value (Escherichia coli EC14) was 32 µg/mL.

— patent US4683227A, “Antibiotic derivatives of 7β-[2-(thiazol-4-yl)acetamide]-3-chloro-3-cephem-4-carboxylic acids and compositions and method of use thereof” (Eli Lilly and Company, priority 1985, dated 1987)
